Test [1] has as its target T1, ERα (Homo sapiens, UniProt P03372).
T1 sequence (P03372 1-595): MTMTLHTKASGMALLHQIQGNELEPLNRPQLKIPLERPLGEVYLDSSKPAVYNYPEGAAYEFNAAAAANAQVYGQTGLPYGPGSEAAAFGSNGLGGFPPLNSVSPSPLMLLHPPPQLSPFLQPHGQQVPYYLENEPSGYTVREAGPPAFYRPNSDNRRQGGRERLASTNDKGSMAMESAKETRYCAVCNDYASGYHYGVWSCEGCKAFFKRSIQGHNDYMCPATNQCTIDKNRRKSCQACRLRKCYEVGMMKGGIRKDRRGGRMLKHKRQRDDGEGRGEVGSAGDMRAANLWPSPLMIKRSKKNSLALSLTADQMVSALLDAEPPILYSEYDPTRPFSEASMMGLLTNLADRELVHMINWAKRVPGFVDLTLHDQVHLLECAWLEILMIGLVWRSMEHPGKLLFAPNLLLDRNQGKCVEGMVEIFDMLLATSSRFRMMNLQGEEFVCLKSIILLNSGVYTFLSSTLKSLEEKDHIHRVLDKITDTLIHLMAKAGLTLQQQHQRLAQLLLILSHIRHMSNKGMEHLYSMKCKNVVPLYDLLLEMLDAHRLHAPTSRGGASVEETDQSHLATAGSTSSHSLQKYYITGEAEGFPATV
As to conditions: MCF-7 cells; 500 μM δ-TP or δ-TT, 100 nM E2; 3 h; western blot, GAPDH control. The method, then:
(§1) Figure 3 Measurement of estrogenicity of tocols in vitro. (A) Dose–response curve of the effect of tocols on MCF-7 cells stably transfected with the ERE-β-globin-tk-Luc plasmid (MELN cells). […] Data shown are the mean values ± SEM from three independent experiments. […] MCF-7 extracts were analyzed for the presence of ERα by western blotting using GAPDH as a control. […] The western blot shown is representative of three independent experiments. The ratio of ERα to GAPDH levels in each experiment was determined densitometrically and normalized to control value (taken to be 1). (D) Effect of δ-tocols on estrogen response element-dependent luciferase activity in HELN cells, which are HELA cells transfected with either fully functional ERα or ERβ or their mutated versions containing a deletion the AB domain (ΔAB). […] Data shown are the mean values ± SEM from three independent experiments. […] Cells were treated with 500 μM δ-tocols in the presence or in the absence of ICI. The relative expression of TGFα, PR, and Ps2 (TFF1) after 16 h was analyzed by quantitative RT-PCR. Data shown are the mean values ± SEM from three independent experiments.
A general note: Immunoblotting shows a protein as a band on a membrane.

The target of test [2] is T1, ERα. As to the kind of experiment: Estrogen receptor-binding assay, competition with [3H]-17β-estradiol. Also noted: expressed in transfected cells; host or cells: Cos-7. Conditions: extracts of cos-7 cells expressing human ERα; 2 nM [3H]-E2; tocols 1 μM to 1 mM; N.M. = not measurable.
Test [3] relates to ER-dependent transcription in MELN cells. Nature of the test: ERE-luciferase reporter assay in MELN cells (MCF-7 stably transfected with ERE-β-globin-tk-Luc). The test is classed as cell-based, human. Conditions: 500 μM, maximal response = 10 nM E2.
Excerpt: MELN cells were established by transfecting ER(+) MCF-7 cells with the ERE-β-globin-tk-Luc-SV-Neo plasmid ([36]). HELN cells were generated by transfection of ER(−) HeLa cells with this plasmid. The HELN-ERα, HELN-ERβ, HELN-ΔAB-ERα, and HELN-ΔAB-ERβ cell lines then underwent a second transfection with the corresponding pSG5-puro plasmids (pSG5-ERα-puro, pSG5-ERβ-puro, pSG5-ΔAB-ERα-puro, and pSG5-ΔAB-ERβ-puro, respectively) and expressed wild-type or mutated ERα or ERβ ([39], [40]). […] Comparison of the activities toward hERα and hERβ with the truncated ΔAB-ERα and ΔAB-ERβ provides a powerful model to identify partial ER agonists (requiring ligand-independent AF-1 to induce maximal ER activation). […] Cells were grown routinely in DMEM growth medium supplemented with 5% FBS (Gibco BRL, Life Technologies, Cergy pontoise, France). Cells were incubated at 37°C in a humidified 5% CO2 incubator. For experiments, cells were grown for 5 days in phenol red-free medium, containing 6% dextran-coated charcoal-treated FCS (DCC-FCS) with penicillin–streptomycin. Medium was changed after 2 days. On day 5, cells were treated or not with the compounds, which were dissolved in ethanol. For each condition, 15 × 10^3 cells were seeded per well in 12-well plates and treated, as described above, for 8 h in a final volume of 0.5 ml. At the end of the treatment, cells were washed with PBS and lysed in 150 μl lysis buffer (Promega, Charbonnières, France). Luciferase activity was measured using the luciferase assay reagent (Promega), according to the manufacturer’s instructions. Protein concentrations were measured using the Bradford technique ([41]) to normalize the luciferase activity data. For each condition, average luciferase activity was calculated from the data of three independent wells.
as §1
(In general: A reporter such as luciferase makes a cellular process visible.)

In another test the test system is MCF-7 (ER(+)) cells. As to the kind of experiment: Cell proliferation assay (sulforhodamine B). The class given is cell-based, human. Conditions: 500 μM δ-TP or δ-TT; 30 μM lovastatin; 6-day period.
In the next test the test system is T47D (ER(+)) cells. Nature of the test: Cell proliferation assay (sulforhodamine B). The class given is cell-based, human. Conditions: 500 μM δ-TP or δ-TT; 30 μM lovastatin; 6-day period.

Description for MCF-7 (ER(+)) cells: (§2) MCF-7 (ER(+)), T47D (ER(+)), and MDA-MB-231 (ER(−)) cell lines were from ATCC. Cell lines were maintained at 37°C in a humidified incubator in a 5% CO2-enriched atmosphere in T-75 flasks. […] Cells were grown for 24 h before treatment in phenol red-free medium containing 5% DCC-FCS. Cells were seeded into 96-well plates at 2000 cells/well. Treatment media (150 μl/well) was added on the following day and replaced at 48-h intervals until the end of the experiment. Cell density was measured via the sulforhodamine B method ([43]) after 0, 2, 4, 6, and 8 days. The absorbance of SRB was measured directly at 490 nm in the 96-well plates using a multiskan® multisoft reader from Labsystem.
Description for T47D (ER(+)) cells: as §2

By IC50 is commonly meant the midpoint of a concentration-inhibition curve. A high value points to weaker potency in that assay. On to `Cc1cc(O)cc2c1OC(C)(CCCC(C)CCCC(C)CCCC(C)C)CC2` (stereo not shown) [δ-TP, δ-tocopherol], for which the “degradation of ERα protein” value on ERα [1] was “not degraded”. This molecule also yielded an IC50 on ERα [2] of 118 ± 15 µM. The “luciferase activity as % of the maximal ER-dependent response” value in test [3] stood at 76.5%. In addition, the “effect on MCF-7 cell proliferation” value with MCF-7 (ER(+)) cells is “significant stimulation”. Besides, in the test on T47D (ER(+)) cells, the “effect on T47D cell proliferation” value is given as “significant stimulation”.

As for `CC(C)=CCC/C(C)=C/CC/C(C)=C/CC[C@]1(C)CCc2cc(O)cc(C)c2O1` [δ-TT, δ-tocotrienol], the “degradation of ERα protein” value at ERα [1] is “not degraded”. The molecule further showed an IC50 at ERα [2] of 96 ± 6 µM. The “luciferase activity as % of the maximal ER-dependent response” value in test [3] worked out at 86.6%. For the same molecule, the “effect on MCF-7 cell proliferation” value with MCF-7 (ER(+)) cells is “inhibited the proliferation”. Further, the “effect on T47D cell proliferation” value in the test with T47D (ER(+)) cells is on record as “inhibited the proliferation”.

For the origin of these results see article PMC4700278, “Molecular and Biochemical Analysis of the Estrogenic and Proliferative Properties of Vitamin E Compounds” (Frontiers in Oncology, 2016).
